Reference: patent publication US7253169B2, “Aza compounds, pharmaceutical compositions and methods of use” (Gliamed, Inc., priority 1999, dated 2007)

Key:
[1] = system: TH-stained dopaminergic neurons; test: MPTP Model of Parkinson's Disease; format: in vivo; conditions: MPTP-lesioned CD1 mice; for % recovery of TH-stained dopaminergic neurons at 10 mg/kg: Mus musculus, Neuron, po, read-out: % TH recov 10 mg/kg p.o.
FKBP = FKBP (Homo sapiens, UniProt P62942); test: Ki Test: inhibition of peptidyl-prolyl isomerase (rotamase) activity, chymotrypsin-coupled assay; format: biochemical; conditions: apparent Ki
Sequence of FKBP (P62942 whole entry): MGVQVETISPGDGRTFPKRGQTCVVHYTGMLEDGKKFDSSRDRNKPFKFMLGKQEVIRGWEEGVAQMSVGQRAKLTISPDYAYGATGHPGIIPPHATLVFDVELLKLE
Excerpt: Inhibition of the peptidyl-prolyl isomerase (rotamase) activity of the inventive compounds can be evaluated by known methods described in the literature (Harding et al., Nature, 1989, 341:758-760; Holt et al. J. Am. Chem. Soc., 115:9923-9938). These values are obtained as apparent Ki's and are presented for representative compounds in Table V. The cis-trans isomerization of an alanine-proline bond in a model substrate, N-succinyl-Ala-Ala-Pro-Phe-p-nitroanilide, is monitored spectrophotometrically in a chymotrypsin-coupled assay, which releases para-nitroanilide from the trans form of the substrate. The inhibition of this reaction caused by the addition of different concentrations of inhibitor is determined, and the data is analyzed as a change in first-order rate constant as a function of inhibitor concentration to yield the apparent Ki values.
In a plastic cuvette are added […] of ice cold assay buffer (25 mM HEPES, pH 7.8, 100 mM NaCl), […] of FKBP (2.5 mM in 10 mM Tris-Cl pH 7.5, 100 mM NaCl, 1 mM dithiothreitol), […] of chymotrypsin (50 mg/ml in 1 mM HCl) and […] of test compound at various concentrations in dimethyl sulfoxide. […]
The absorbance at 390 nm versus time is monitored for 90 seconds using a spectrophotometer and the rate constants are determined from the absorbance versus time data files.

Row | Structure (SMILES) | % recovery of TH-stained dopaminergic neurons at 10 mg/kg ([1]; 10 mg/kg p.o.) [%] | other results
1 | CCC(C)(C)C(=O)C(=O)N1CCCN1C(=O)CCCCc1ccccc1 [Compound 1, 3,3-dimethyl-N-[2-(5-phenylpentanoyl) -tetrahydro-1H-1-pyrazolyl]-1,2-pentanedione] | – | % TH recov 4 mg/kg s.c. ([1]; 4 mg/kg s.c.): 14%; Ki (FKBP): 1170 nM
2 | CCC(C)(C)C(=O)C(=O)N1CCCN1C(=O)CCc1ccccc1 [Compound 2, 3,3-dimethyl-N-[2-(3-phenylpropanoyl)tetra-hydro-1H-1-pyrazolyl]-1,2-pentanedione] | 10 | –
3 | CCC(C)(C)C(=O)C(=O)N1CCCN1C(=O)CCC#Cc1cccnc1 [Compound 3, 3,3-dimethyl-1-[2-(5-(3-pyridyl)pent-4-ynoyl)-pyrazolidinyl]-pentane-1,2-dione] | 26 | –
4 | CCC(C)(C)C(=O)C(=O)N1CCCN1C(=O)CCCc1ccccc1 [Compound 5, 3,3-dimethyl-1-[2-(4-phenylbutanoyl)-pyrazolidinyl]pentane-1,2-dione] | 4 | –
5 | CCC(C)(C)C(=O)C(=O)N1CCCN1C(=O)CCCCCc1ccccc1 [Compound 6, 3,3-dimethyl-1-[2-(6-phenylhexanoyl)-pyrazolidinyl]pentane-1,2-dione] | 32 | –
6 | CCC(C)(C)C(=O)C(=O)N1CCCN1C(=O)CCCCc1cccnc1 [Compound 7, 3,3-dimethyl-1-[2-(5-(3-pyridyl)pentanoyl)-pyrazolidinyl]pentane-1,2-dione] | 57 | –
7 | CCC(C)(C)C(=O)C(=O)N1CCCCN1C(=O)CCCCCc1ccccc1 [Compound 12, 3,3-dimethyl-1-[2-(6-phenylhexanoyl)-perhydropyridazinyl]-pentane-1,2-dione] | 35 | –
8 | CCC(C)(C)C(=O)C(=O)N1CCCCN1C(=O)CCCCCc1cccnc1 [Compound 13, 3,3-dimethyl-2-[2-(6-(3-pyridyl)hexanoyl)-perhydropyridazinyl]-pentane-1,2-dione] | 18 | Ki (FKBP): 3210 nM
9 | CCC(C)(C)C(=O)C(=O)N1CCCCN1C(=O)OCCCc1ccccc1 [Compound 14, 3-phenylpropyl 2-(3,3-dimethyl-2-oxopentanoyl)-perhydropyridazine-carboxylate] | – | % TH recov 10 mg/kg p.o. ([1]; 10 mg/kg p.o.): 3%
10 | CCC(C)(C)C(=O)C(=O)N1CCCCN1C(=O)OCCCCc1ccccc1 [Compound 15, 4-phenylbutyl 2-(3,3-dimethyl-2-oxopentanoyl)perhydro-pyridazinecarboxylate] | 21 | –
11 | CCC(C)(C)C(=O)C(=O)N1CCCCN1C(=O)OCCCCCc1ccccc1 [Compound 16, 5-phenylpentyl 2-(3,3-dimethyl-2-oxopentanoyl)perhydro-pyridazinecarboxylate] | 49 | –
12 | CCC(C)(C)C(=O)C(=O)N1CCCCN1C(=O)OCCCCc1cccnc1 [Compound 17, 4-(3-pyridyl)butyl 2-(3,3-dimethyl-2-oxopentanoyl)-perhydropyridazine-carboxylate] | 38 | –
13 | CCC(C)(C)C(=O)C(=O)N1CCCCN1C(=O)CCCCc1ccccc1 [Compound 18, 3,3-dimethyl-1-[2-({5-phenyl)pentanoyl)-perhydropyridazinyl]-pentane-1,2-dione] | 18 | –
14 | O=C(OCCCCc1ccccc1)N1CCCCN1S(=O)(=O)Cc1ccccc1 [Compound 106, 4-phenylbutyl 2-[benzylsunfonyl]-perhydropyridazine-carboxylate] | 23 | –
15 | O=C(NC1CCCCC1)N1CCCCN1C(=O)OCCCCc1ccccc1 [Compound 154, 4-phenylbutyl 2-(N-cyclohexylcarbamoyl)-perhydropyridazine-carboxylate] | 46 | –
